Assay results published in US10947188B2, “Small molecule ferroptosis inducers” (THE TRUSTEES OF COLUMBIA UNIVERSITY IN THE CITY OF NEW YORK, priority 2016, dated 2021).

How the values were obtained:
HT-1080 = assay: Modulatory profiling: Alamar Blue viability, lethal compound cotreated with death modulator (EC50, AUC); assay type: cell-based; parameters: AUC, modulator HT.3MA / AUC, modulator HT.ALLN / AUC HT.ATA / AUC HT.ActD / AUC HT.BHA / AUC HT.BHT / AUC HT.BocD / AUC HT.CHX / AUC HT.Co2+ / AUC HT.DPQ / AUC HT.EGTA / AUC HT.Lmim / AUC HT.NAD+ / AUC HT.Nec-1 / AUC HT.SP600125 / AUC HT.TLCK / AUC HT.U0126: unit not given beside the values; details: for AUC, modulator HT.3MA / AUC, modulator HT.ALLN: HT-1080 cells, modulatory profile value (AUC); for AUC, modulator HT.3MA: lethal compound cotreated with modulator 3MA; for AUC HT.ATA: HT-1080, modulator ATA; for AUC HT.ActD: HT-1080, modulator ActD; for AUC HT.BHA: HT-1080, modulator BHA; for AUC HT.BHT: HT-1080, modulator BHT; for AUC HT.BocD: HT-1080, modulator BocD; for AUC HT.CHX: HT-1080, modulator CHX; for AUC HT.Co2+: HT-1080, modulator Co2+; for AUC HT.CspA: HT-1080, modulator CspA; for AUC HT.DPQ: HT-1080, modulator DPQ; for AUC HT.EGTA: HT-1080, modulator EGTA; for AUC HT.Gd3+: HT-1080, modulator Gd3+; for AUC HT.LNAME: HT-1080, modulator LNAME; for AUC HT.Lmim: HT-1080, modulator Lmim; for AUC HT.NAD+: HT-1080, modulator NAD+; for AUC HT.NMMA: HT-1080, modulator NMMA; for AUC HT.Nec-1: HT-1080, modulator Nec-1; for AUC HT.Pepstatin: HT-1080, modulator Pepstatin; for AUC HT.SP600125: HT-1080, modulator SP600125; for AUC HT.TLCK: HT-1080, modulator TLCK; for AUC HT.U0126: HT-1080, modulator U0126; for HT.atoc (AUC) / HT.bCarotene (AUC) / HT.deferox (AUC) / HT.digoxin (AUC) / HT.trolox (AUC) / HT.zVAD (AUC): HT-1080; for HT.atoc (AUC): modulator atoc; for HT.bCarotene (AUC): modulator bCarotene; for HT.deferox (AUC): modulator deferox; for HT.digoxin (AUC): modulator digoxin; for HT.trolox (AUC): modulator trolox; for HT.zVAD (AUC): modulator zVAD; for AUC, modulator HT.ALLN: lethal compound cotreated with modulator ALLN; on AUC HT.BHA: reference of the scale not given here; on AUC HT.EGTA: reference of the scale not given here
BJeLR = assay: as above; assay type: cell-based, human; parameters: AUC, modulator BJ.Gd3+ / AUC, modulator BJ.LNAME / AUC, modulator BJ.Lmin / AUC, modulator BJ.3MA / AUC, modulator BJ.ALLN / AUC, modulator BJ.Boc D / AUC, modulator BJ.CHX / AUC, modulator BJ.Co2+ / AUC, modulator BJ.Nec-1 / AUC, modulator BJ.Pepstatin / AUC, modulator BJ.TLCK / AUC, modulator BJ.atoc / AUC, modulator BJ.trolox / AUC, modulator BJ.zVAD: unit not given beside the values; details: BJeLR cells, modulatory profile value (AUC); for AUC, modulator BJ.3MA: lethal compound cotreated with modulator 3MA; for AUC, modulator BJ.ALLN: lethal compound cotreated with modulator ALLN; for AUC, modulator BJ.Boc D: lethal compound cotreated with modulator Boc D; for AUC, modulator BJ.CHX: lethal compound cotreated with modulator CHX; for AUC, modulator BJ.Co2+: lethal compound cotreated with modulator Co2+; for AUC, modulator BJ.DPQ: lethal compound cotreated with modulator DPQ; for AUC, modulator BJ.Gd3+: lethal compound cotreated with modulator Gd3+; for AUC, modulator BJ.LNAME: lethal compound cotreated with modulator LNAME; for AUC, modulator BJ.Lmin: lethal compound cotreated with modulator Lmin; for AUC, modulator BJ.NAD+: lethal compound cotreated with modulator NAD+; for AUC, modulator BJ.NMMA: lethal compound cotreated with modulator NMMA; for AUC, modulator BJ.Nec-1: lethal compound cotreated with modulator Nec-1; for AUC, modulator BJ.Pepstatin: lethal compound cotreated with modulator Pepstatin; for AUC, modulator BJ.TLCK: lethal compound cotreated with modulator TLCK; for AUC, modulator BJ.atoc: lethal compound cotreated with modulator atoc; for AUC, modulator BJ.trolox: lethal compound cotreated with modulator trolox; for AUC, modulator BJ.zVAD: lethal compound cotreated with modulator zVAD; for AUC, modulator BJ.Lmin/NAD+: lethal compound cotreated with modulator Lmin/NAD+; on AUC, modulator BJ.3MA: reference of the scale not given here; on AUC, modulator BJ.ALLN: reference of the scale not given here; on AUC, modulator BJ.Boc D: reference of the scale not given here; on AUC, modulator BJ.CHX: reference of the scale not given here; on AUC, modulator BJ.Co2+: reference of the scale not given here; on AUC, modulator BJ.DPQ: reference of the scale not given here; on AUC, modulator BJ.Gd3+: reference of the scale not given here; on AUC, modulator BJ.LNAME: reference of the scale not given here; on AUC, modulator BJ.NAD+: reference of the scale not given here; on AUC, modulator BJ.NMMA: reference of the scale not given here; on AUC, modulator BJ.Nec-1: reference of the scale not given here; on AUC, modulator BJ.Pepstatin: reference of the scale not given here; on AUC, modulator BJ.TLCK: reference of the scale not given here

Compound: O=[N+]([O-])c1ccc(O)c([N+](=O)[O-])c1
- AUC, modulator HT.3MA (HT-1080): −0.1332
- AUC, modulator BJ.3MA (BJeLR): −0.008182
- AUC, modulator BJ.ALLN (BJeLR): −0.03838
- AUC, modulator BJ.Boc D (BJeLR): −0.01714
- AUC, modulator BJ.CHX (BJeLR): 0.189
- AUC, modulator BJ.Co2+ (BJeLR): −0.008316
- AUC, modulator BJ.DPQ (BJeLR): −0.03251
- AUC, modulator BJ.Gd3+ (BJeLR): −0.01413
- AUC, modulator BJ.LNAME (BJeLR): −0.0202
- AUC, modulator BJ.Lmin (BJeLR): −0.0205
- AUC, modulator BJ.NAD+ (BJeLR): 0.06986
- AUC, modulator BJ.NMMA (BJeLR): −0.02735
- AUC, modulator BJ.Nec-1 (BJeLR): −0.001955
- AUC, modulator BJ.Pepstatin (BJeLR): 0.05394
- AUC, modulator BJ.TLCK (BJeLR): −0.0426
- AUC, modulator BJ.atoc (BJeLR): 0.02318
- AUC, modulator BJ.trolox (BJeLR): 0.009957
- AUC, modulator BJ.zVAD (BJeLR): −0.0001198

Compound: CC1=CC(C)(C)Nc2ccc(OC(=O)c3ccco3)cc21 [CIL2]
- AUC HT.ATA (HT-1080): 0.03084
- AUC HT.ActD (HT-1080): −0.005228
- AUC HT.BHA (HT-1080): −0.03767
- AUC HT.BHT (HT-1080): −0.1327
- AUC HT.BocD (HT-1080): 0.1395
- AUC HT.CHX (HT-1080): 0.1414
- AUC HT.Co2+ (HT-1080): −0.132
- AUC HT.CspA (HT-1080): 0.01224
- AUC HT.DPQ (HT-1080): −0.003125
- AUC HT.EGTA (HT-1080): −0.005627
- AUC HT.Gd3+ (HT-1080): −0.02304
- AUC HT.LNAME (HT-1080): 0.02625
- AUC HT.Lmim (HT-1080): −0.03013
- AUC HT.NAD+ (HT-1080): 0.04925
- AUC HT.NMMA (HT-1080): −0.03029
- AUC HT.Nec-1 (HT-1080): −0.01273
- AUC HT.Pepstatin (HT-1080): 0.008816
- AUC HT.SP600125 (HT-1080): −0.003684
- AUC HT.TLCK (HT-1080): 0.02037
- AUC HT.U0126 (HT-1080): 0.02089
- HT.atoc (AUC) (HT-1080): 0.04757
- HT.bCarotene (AUC) (HT-1080): −0.02687
- HT.deferox (AUC) (HT-1080): 0.02963
- HT.digoxin (AUC) (HT-1080): −0.01222
- HT.trolox (AUC) (HT-1080): −0.03094
- HT.zVAD (AUC) (HT-1080): −0.02828
- AUC, modulator HT.3MA (HT-1080): 0.07178
- AUC, modulator HT.ALLN (HT-1080): 0.05292
- AUC, modulator BJ.3MA (BJeLR): 0.06431
- AUC, modulator BJ.ALLN (BJeLR): −0.03978
- AUC, modulator BJ.Boc D (BJeLR): −0.03808
- AUC, modulator BJ.CHX (BJeLR): 0.03999
- AUC, modulator BJ.Co2+ (BJeLR): −0.1362
- AUC, modulator BJ.DPQ (BJeLR): 0.003929
- AUC, modulator BJ.Gd3+ (BJeLR): 0.01322
- AUC, modulator BJ.LNAME (BJeLR): −0.004423
- AUC, modulator BJ.Lmin/NAD+ (BJeLR): −0.01944
- AUC, modulator BJ.Lmin (BJeLR): 0.008318
- AUC, modulator BJ.NAD+ (BJeLR): 0.03383
- AUC, modulator BJ.NMMA (BJeLR): −0.005234
- AUC, modulator BJ.Nec-1 (BJeLR): 0.0318
- AUC, modulator BJ.Pepstatin (BJeLR): 0.05923
- AUC, modulator BJ.TLCK (BJeLR): 0.06974
- AUC, modulator BJ.atoc (BJeLR): −0.01149
- AUC, modulator BJ.trolox (BJeLR): 0.001657
- AUC, modulator BJ.zVAD (BJeLR): −0.003959

Compound: CC(C)(C)C1CCc2c(sc(NC(=O)CN3CCNCC3)c2C(N)=O)C1 (centres unmarked) [CIL10]
- AUC HT.ATA (HT-1080): 0.01743
- AUC HT.ActD (HT-1080): −0.01865
- AUC HT.BHA (HT-1080): −0.02863
- AUC HT.BHT (HT-1080): −0.08663
- AUC HT.BocD (HT-1080): 0.1385
- AUC HT.CHX (HT-1080): 0.05132
- AUC HT.Co2+ (HT-1080): 0.1226
- AUC HT.CspA (HT-1080): 0.004872
- AUC HT.DPQ (HT-1080): 0.004305
- AUC HT.EGTA (HT-1080): −0.007776
- AUC HT.Gd3+ (HT-1080): −0.02788
- AUC HT.LNAME (HT-1080): 0.02616
- AUC HT.Lmim (HT-1080): −0.02065
- AUC HT.NAD+ (HT-1080): 0.04087
- AUC HT.NMMA (HT-1080): −0.009286
- AUC HT.Nec-1 (HT-1080): 0.03698
- AUC HT.Pepstatin (HT-1080): −0.01087
- AUC HT.SP600125 (HT-1080): −0.009227
- AUC HT.TLCK (HT-1080): −0.001631
- AUC HT.U0126 (HT-1080): 0.01126
- HT.atoc (AUC) (HT-1080): 0.1034
- HT.bCarotene (AUC) (HT-1080): −0.01201
- HT.deferox (AUC) (HT-1080): −0.004319
- HT.digoxin (AUC) (HT-1080): 0.01443
- HT.trolox (AUC) (HT-1080): −0.006674
- HT.zVAD (AUC) (HT-1080): −0.01286
- AUC, modulator HT.3MA (HT-1080): −0.01982
- AUC, modulator HT.ALLN (HT-1080): 0.1067
- AUC, modulator BJ.3MA (BJeLR): 0.134
- AUC, modulator BJ.ALLN (BJeLR): −0.01713
- AUC, modulator BJ.Boc D (BJeLR): −0.05212
- AUC, modulator BJ.CHX (BJeLR): −0.01805
- AUC, modulator BJ.Co2+ (BJeLR): 0.1142
- AUC, modulator BJ.DPQ (BJeLR): −0.02695
- AUC, modulator BJ.Gd3+ (BJeLR): 0.007922
- AUC, modulator BJ.LNAME (BJeLR): 0.01363
- AUC, modulator BJ.Lmin/NAD+ (BJeLR): −0.01396
- AUC, modulator BJ.Lmin (BJeLR): −0.02341
- AUC, modulator BJ.NAD+ (BJeLR): −0.001182
- AUC, modulator BJ.NMMA (BJeLR): 0.006192
- AUC, modulator BJ.Nec-1 (BJeLR): 0.07272
- AUC, modulator BJ.Pepstatin (BJeLR): 0.001044
- AUC, modulator BJ.TLCK (BJeLR): −0.05831
- AUC, modulator BJ.atoc (BJeLR): 0.0467
- AUC, modulator BJ.trolox (BJeLR): 0.05527
- AUC, modulator BJ.zVAD (BJeLR): −0.007333
